Source: PubChem BioAssay (NCI)
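Test compounds were applied to cells in 96-well plates for 48 hours at 5 doses. Here, GI50 denotes the concentration required for 50% inhibition of growth. TGI: concentration producing complete growth inhibition.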

Test system: MDA-MB-468 breast
Test: NCI tumour cell line growth inhibition, 48 h

SMILES	GI50	TGI
CC[N+](CCCCCCCCCC[N+](CC)(c1ccccn1)c1ccccn1)(c1ccccn1)c1ccccn1	206 nM	1430 nM
CCOC(=O)[C@@H](C)C[C@H](Cc1ccccc1)NC(=O)c1csc([C@@H](C[C@H](C(C)C)N(C)C(=O)[C@@H](NC(=O)[C@H]2C[C@H](O[Si](C)(C)C(C)(C)C)CCN2C)C(C)C)OC(C)=O)n1	75.4 nM	5450 nM
CC(C)c1ccc(Cc2cnc(NC(=O)c3cc(Br)cs3)s2)cc1	1300 nM	8670 nM
O=C(Nc1cccc(C(F)(F)F)c1)c1cc(-c2ccc(F)cc2F)ccc1O	2220 nM	6840 nM
C#C[C@]1(O)CC[C@H]2[C@@H]3CC=C4c5sc(Nc6cc(Cl)ccn6)nc5CC[C@]4(C)[C@H]3CC[C@@]21C	2190 nM	6610 nM
CC[N+](CC)=c1ccc2nc3c(cc(N)c4ccccc43)oc-2c1	21.9 nM	132 nM
COc1ccc2c(c1)sc1nc(-c3ccccc3)c(-c3ccsc3)n12	1980 nM	5430 nM
COc1cc(-c2cnn(C)c2)ccc1Nc1ncc2ccnc(N[C@@H](C)C(C)(C)C)c2n1	> 74700 nM	> 100000 nM
COc1cc(/C=C/c2cc(C(F)(F)F)[nH]c(=O)n2)ccc1OCc1ccccc1F	2970 nM	14400 nM
O=C(Nc1ccc(Cl)cc1)Nc1ccc(Cl)c(Cl)c1	2610 nM	11300 nM
CN1CCN(Cc2ccc(NC(=O)c3cncc(C#Cc4cnc(N)c5ccc(F)cc45)c3)cc2C(F)(F)F)CC1	1770 nM	6670 nM
COC(=O)CCC/C=C\C[C@H]1C=CC(=O)/C1=C/C[C@@H](O)CCc1cccc(C(F)(F)F)c1	2010 nM	5230 nM
COc1cccc(-c2nc3sccn3c2-c2ccnc(NCCNC(=O)Nc3cccc(C(F)(F)F)c3)n2)c1	2630 nM	10400 nM
COc1cc2nc(-c3ccc(C(F)(F)F)cc3)cc(OCCCN3CCOCC3)c2cc1OC	1240 nM	5710 nM
N#CCc1nc(C#N)c(N)o1	> 100000 nM	> 100000 nM
CCOc1ccc(/C=C/C(=O)c2ccccc2)cc1	17300 nM	34100 nM
COc1cc(OC)c(/C=C/c2ccc3ccccc3[n+]2C)c(OC)c1	161 nM	763 nM

SMILES	GI50	TGI
CCCCNc1nc(NC(C)(C)C)nc(NC(C)(C)C)n1	1490 nM	34800 nM
O=C(CN1CCOCC1)NNc1ncnc2ccccc12	3650 nM	15600 nM
Cc1cc(/C=C2\SC(=Nc3ccccc3)N(C3CCCC3)C2=O)c(C)n1-c1ccc(Cl)cc1	48000 nM	> 100000 nM
Nc1c(C(=O)c2ccccc2)sc2nc(-c3cccs3)ccc12	200 nM	910 nM
COc1cc(-c2nc3ccc(C)cc3[nH]2)ccc1OCC(=O)N=Nc1c(O)[nH]c2ccccc12	1750 nM	3340 nM
CC1=CSC2=NC(c3ccc(Cl)c(Cl)c3)=CC(c3ccc(Cl)cc3)N12 (stereo not drawn)	> 100000 nM	> 100000 nM
O=[N+]([O-])c1ccc2[nH]cc(-c3c4ccsc4cc4[nH]c5ccc([N+](=O)[O-])cc5c34)c2c1	805 nM	2470 nM
CC1=CC[C@@H]2CC[C@]3(C)[C@H](CC[C@@H]4[C@@]5(C)CCCNC(C)(C)[C@@H]5CC[C@]43C)[C@H]2[C@@H]1C	1680 nM	3300 nM
Oc1ccc(Br)cc1Sc1cc(Br)ccc1O	4090 nM	20800 nM
C=CC(=O)N1CCCC(n2nc(-c3ccc(Oc4ccccc4)cc3)c3c(N)ncnc32)C1 (stereo not drawn)	31.9 nM	600 nM
Clc1nc(Oc2ccccc2)nc(-c2cn(-c3ccccc3)c3ccccc23)n1	2860 nM	9940 nM
CCCCCCC/C=C/[C@H]1O[C@]23C(=O)C[C@@]4(C[C@@H](OC5OC(CO)C(O)C(O)C5O)C[C@@H]4[C@H]2C=C1C)OC3=O (stereo partly drawn)	4580 nM	13500 nM
CC1(C)C=CC[C@]2(C)[C@H]3CC[C@@H]4[C@H]5[C@H](C(=O)/C=C/c6cccnc6)CC[C@]5(CO)CC[C@@]4(C)[C@]3(C)CC[C@@H]12	1340 nM	2880 nM
COc1ccc(/C=C/c2cc(OC)c(OC)c(OC)c2)cc1NC(=O)/C=C/c1ccc(F)cc1	1780 nM	> 37500 nM
COc1c/c(=C2/C=c3ccccc3=N2)[nH]/c1=C/c1[nH]c(C)cc1C	311 nM	1940 nM
C=CCn1c(C)nc2cc(Nc3nc(Nc4ccc5nc(C)n(CC=C)c5c4)c4ccccc4n3)ccc21	203 nM	521 nM
Cc1ccc(C(=O)c2oc3ccc4c(C)cc(=O)oc4c3c2C)cc1	12100 nM	> 100000 nM
